In US10221197B2, “Phosphatidylinositol 3-kinase inhibitors” (Gilead Sciences, Inc., priority 2014, dated 2019):

Assays:
Type in all cases: biochemical
PI3Kγ = PI3Kγ (Homo sapiens (Human), UniProt P48736); assay: TR-FRET enzymatic assay of PI3K isoforms (PI3Kγ); conditions: TR-FRET, 2×Km ATP, 2 μM PIP2, PI3Kγ at 2 nM, incubated for 30 minutes at 25° C.; read-out: γ IC50
Procedure: (§1) The compounds of formula (I) were characterized for their enzymatic activity against the PI3K isoforms. Certain compounds of the present application, including certain compounds of formula (II) and (III) were also characterized for their enzymatic activity against PI3K isoforms. The activities were measured using a time-resolved fluorescence resonance energy transfer (TR-FRET) assay.

PI3Kβ = PI3Kβ (Homo sapiens (Human), UniProt P42338); assay: TR-FRET enzymatic assay of PI3K isoforms (PI3Kβ); conditions: TR-FRET, 2×Km ATP, 2 μM PIP2, incubated for 30 minutes at 25° C.; read-out: β IC50
Chain of PI3Kβ (P42338 whole entry, canonical isoform): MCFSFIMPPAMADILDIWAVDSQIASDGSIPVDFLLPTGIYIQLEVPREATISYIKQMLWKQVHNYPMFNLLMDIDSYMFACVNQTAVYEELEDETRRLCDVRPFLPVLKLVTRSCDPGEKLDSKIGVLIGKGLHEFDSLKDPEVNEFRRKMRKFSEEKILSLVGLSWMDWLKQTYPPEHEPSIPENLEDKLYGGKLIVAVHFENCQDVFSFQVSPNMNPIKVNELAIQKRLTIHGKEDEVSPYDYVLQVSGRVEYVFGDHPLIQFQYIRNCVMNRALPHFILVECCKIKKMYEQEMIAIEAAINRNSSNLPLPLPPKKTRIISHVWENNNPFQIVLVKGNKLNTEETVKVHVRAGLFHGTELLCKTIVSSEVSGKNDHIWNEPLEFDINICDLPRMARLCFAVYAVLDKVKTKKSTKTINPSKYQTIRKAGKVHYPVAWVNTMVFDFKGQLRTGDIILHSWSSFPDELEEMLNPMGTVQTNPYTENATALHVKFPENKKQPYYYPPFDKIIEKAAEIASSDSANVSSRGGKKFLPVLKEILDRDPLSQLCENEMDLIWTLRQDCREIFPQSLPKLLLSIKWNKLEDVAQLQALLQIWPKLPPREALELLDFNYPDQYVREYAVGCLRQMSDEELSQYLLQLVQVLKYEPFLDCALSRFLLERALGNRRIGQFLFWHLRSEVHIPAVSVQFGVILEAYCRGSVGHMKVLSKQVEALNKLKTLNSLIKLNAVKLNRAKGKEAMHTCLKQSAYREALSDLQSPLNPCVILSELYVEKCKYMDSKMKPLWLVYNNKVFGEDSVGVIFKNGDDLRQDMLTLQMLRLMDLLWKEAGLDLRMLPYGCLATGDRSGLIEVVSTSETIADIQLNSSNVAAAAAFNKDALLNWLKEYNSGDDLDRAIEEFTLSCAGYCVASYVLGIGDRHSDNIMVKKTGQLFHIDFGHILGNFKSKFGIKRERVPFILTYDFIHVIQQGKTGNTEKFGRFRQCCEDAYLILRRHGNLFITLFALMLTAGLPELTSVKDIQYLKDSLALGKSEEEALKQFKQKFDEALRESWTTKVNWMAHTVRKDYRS
Chain of PI3Kβ (P27986 whole entry partner, canonical isoform): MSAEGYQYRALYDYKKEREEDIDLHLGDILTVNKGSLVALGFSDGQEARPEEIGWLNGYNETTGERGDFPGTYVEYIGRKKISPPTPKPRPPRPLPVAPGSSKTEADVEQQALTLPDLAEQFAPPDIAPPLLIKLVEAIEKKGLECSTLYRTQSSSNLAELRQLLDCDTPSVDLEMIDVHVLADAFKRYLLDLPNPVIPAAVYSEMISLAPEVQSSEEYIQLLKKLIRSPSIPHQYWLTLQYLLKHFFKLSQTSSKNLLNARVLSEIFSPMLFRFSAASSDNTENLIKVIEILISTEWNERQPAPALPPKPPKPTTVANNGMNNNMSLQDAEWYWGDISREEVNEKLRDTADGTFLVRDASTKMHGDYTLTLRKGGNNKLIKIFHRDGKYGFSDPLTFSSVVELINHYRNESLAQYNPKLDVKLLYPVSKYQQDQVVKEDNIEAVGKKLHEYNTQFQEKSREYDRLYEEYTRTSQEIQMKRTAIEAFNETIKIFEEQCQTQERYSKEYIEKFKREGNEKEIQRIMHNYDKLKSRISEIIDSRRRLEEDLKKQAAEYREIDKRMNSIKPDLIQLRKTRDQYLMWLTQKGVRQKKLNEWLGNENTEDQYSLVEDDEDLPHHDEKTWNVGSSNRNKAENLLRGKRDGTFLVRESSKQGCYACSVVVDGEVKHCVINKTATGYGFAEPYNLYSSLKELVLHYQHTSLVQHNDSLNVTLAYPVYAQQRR
Procedure: as §1

PI3Kδ = PI3Kδ (Homo sapiens (Human), UniProt O00329); assay: TR-FRET enzymatic assay of PI3K isoforms (PI3Kδ); conditions: 2×Km ATP, 2 μM PIP2, incubated for 30 minutes at 25° C., read-out: δ IC50
Chain of PI3Kδ (O00329 whole entry, canonical isoform): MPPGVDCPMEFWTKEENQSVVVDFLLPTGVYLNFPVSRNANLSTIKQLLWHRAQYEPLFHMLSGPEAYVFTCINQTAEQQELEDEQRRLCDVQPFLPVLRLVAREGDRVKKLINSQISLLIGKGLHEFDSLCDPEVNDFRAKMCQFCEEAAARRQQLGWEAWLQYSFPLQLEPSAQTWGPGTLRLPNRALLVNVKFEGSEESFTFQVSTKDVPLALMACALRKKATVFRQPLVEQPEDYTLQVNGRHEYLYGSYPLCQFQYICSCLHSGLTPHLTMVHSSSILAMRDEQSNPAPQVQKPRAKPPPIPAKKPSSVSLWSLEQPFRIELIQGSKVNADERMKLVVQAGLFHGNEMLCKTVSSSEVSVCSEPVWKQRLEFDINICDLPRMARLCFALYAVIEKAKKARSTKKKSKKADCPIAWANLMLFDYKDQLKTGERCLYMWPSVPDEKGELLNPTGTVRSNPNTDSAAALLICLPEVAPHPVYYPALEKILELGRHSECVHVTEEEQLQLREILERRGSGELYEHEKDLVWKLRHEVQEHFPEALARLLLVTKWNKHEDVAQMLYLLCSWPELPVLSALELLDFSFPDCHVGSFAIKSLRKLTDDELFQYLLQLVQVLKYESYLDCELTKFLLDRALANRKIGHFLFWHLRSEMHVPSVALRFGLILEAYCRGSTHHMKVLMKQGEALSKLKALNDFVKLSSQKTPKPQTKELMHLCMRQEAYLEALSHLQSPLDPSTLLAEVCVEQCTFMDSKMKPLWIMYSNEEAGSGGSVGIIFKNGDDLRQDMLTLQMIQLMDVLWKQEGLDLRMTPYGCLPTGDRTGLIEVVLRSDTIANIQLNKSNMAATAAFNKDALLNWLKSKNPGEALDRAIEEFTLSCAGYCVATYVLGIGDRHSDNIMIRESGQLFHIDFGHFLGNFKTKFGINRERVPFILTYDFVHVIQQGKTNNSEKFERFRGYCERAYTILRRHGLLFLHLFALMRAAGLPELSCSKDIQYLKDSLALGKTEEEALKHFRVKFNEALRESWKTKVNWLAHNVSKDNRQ
Chain of PI3Kδ (P27986 whole entry partner, canonical isoform): as the sequence (P27986 whole entry partner, canonical isoform) above
Procedure: as §1

Chain of PI3Kγ (P48736 whole entry, canonical isoform): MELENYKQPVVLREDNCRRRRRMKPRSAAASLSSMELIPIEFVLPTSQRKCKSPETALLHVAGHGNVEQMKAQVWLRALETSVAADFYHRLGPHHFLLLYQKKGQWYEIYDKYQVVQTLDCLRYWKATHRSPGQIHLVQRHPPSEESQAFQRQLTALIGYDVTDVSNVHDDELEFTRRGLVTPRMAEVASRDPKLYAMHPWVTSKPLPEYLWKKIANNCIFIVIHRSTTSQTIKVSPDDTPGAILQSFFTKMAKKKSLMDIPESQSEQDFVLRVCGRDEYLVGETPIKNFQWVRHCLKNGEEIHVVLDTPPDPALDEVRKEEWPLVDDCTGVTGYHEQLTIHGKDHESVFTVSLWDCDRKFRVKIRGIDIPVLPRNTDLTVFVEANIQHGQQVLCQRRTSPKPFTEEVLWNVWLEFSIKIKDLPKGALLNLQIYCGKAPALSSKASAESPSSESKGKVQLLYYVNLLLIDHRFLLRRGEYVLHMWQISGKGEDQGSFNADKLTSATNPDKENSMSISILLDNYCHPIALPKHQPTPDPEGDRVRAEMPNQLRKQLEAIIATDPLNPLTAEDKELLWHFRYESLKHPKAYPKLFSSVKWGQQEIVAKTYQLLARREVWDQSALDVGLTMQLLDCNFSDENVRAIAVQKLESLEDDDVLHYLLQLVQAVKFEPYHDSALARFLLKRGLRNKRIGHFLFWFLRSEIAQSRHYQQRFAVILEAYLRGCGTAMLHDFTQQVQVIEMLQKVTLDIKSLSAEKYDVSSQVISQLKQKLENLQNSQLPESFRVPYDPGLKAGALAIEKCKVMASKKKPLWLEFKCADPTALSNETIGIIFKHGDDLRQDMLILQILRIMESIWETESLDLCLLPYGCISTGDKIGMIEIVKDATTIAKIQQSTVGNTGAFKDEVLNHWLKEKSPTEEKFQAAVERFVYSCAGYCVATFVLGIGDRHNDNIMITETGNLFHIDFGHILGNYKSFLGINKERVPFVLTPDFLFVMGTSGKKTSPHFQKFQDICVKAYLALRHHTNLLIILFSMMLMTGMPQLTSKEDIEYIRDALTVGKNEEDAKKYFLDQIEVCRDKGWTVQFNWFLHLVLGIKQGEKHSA
Chain of PI3Kγ (Q8WYR1 whole entry partner, canonical isoform): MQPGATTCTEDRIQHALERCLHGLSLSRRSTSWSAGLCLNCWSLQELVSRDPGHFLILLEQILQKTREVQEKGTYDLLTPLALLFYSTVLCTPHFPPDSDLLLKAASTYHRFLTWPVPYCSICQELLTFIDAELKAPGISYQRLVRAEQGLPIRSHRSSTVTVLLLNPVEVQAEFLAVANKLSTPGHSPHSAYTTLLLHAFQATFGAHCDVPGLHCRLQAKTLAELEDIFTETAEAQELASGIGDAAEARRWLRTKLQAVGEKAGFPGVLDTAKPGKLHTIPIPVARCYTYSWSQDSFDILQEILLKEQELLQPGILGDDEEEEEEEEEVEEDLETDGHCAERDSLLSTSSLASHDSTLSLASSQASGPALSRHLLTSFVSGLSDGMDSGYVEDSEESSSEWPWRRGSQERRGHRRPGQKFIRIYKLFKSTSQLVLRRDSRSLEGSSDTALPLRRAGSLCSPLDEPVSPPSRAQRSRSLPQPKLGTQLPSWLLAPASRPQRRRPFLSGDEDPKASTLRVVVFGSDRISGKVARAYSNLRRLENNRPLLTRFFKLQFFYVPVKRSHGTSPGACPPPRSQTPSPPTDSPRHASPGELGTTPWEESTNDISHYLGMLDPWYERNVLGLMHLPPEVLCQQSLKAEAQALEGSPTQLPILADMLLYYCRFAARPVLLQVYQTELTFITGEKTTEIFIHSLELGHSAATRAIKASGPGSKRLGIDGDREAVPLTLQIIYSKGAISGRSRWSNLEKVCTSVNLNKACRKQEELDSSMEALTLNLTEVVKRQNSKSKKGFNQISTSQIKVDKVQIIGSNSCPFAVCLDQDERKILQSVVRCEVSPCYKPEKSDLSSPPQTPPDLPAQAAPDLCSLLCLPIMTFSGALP

| SMILES | IC50 (PI3Kγ) [µM] | IC50 (PI3Kβ) [µM] | IC50 (PI3Kδ) [µM] |
| --- | --- | --- | --- |
| C[C@H](Nc1nc(N)nc(N)c1C#N)c1nc2cccc(Cl)c2c(=O)n1-c1cccc(C(N)=O)c1 [Compound 2, (S)-3-(5-chloro-2-(1-((2,6-diamino-5-cyanopyrimidin-4-yl)amino)ethyl)-4-oxoquinazolin-3(4H)-yl)benzamide] | 0.06 | 0.006 | 0.0005 |
| CC[C@H](Nc1nc(N)nc(N)c1C#N)c1nc2cccc(Cl)c2c(=O)n1-c1cccc(C(N)=O)c1 [Compound 8, (S)-3-(5-chloro-2-(1-((2,6-diamino-5-cyanopyrimidin-4-yl)amino)propyl)-4-oxoquinazolin-3(4H)-yl)benzamide] | 0.2 | 0.002 | 0.0004 |
| N#Cc1c(N)nc(N)nc1N[C@H](c1nc2cccc(Cl)c2c(=O)n1-c1cccc(C(N)=O)c1)C1CC1 [Compound 9, (S)-3-(5-chloro-2-(cyclopropyl((2,6-diamino-5-cyanopyrimidin-4-yl)amino)methyl)-4-oxoquinazolin-3(4H)-yl)benzamide] | 0.22 | 0.002 | 0.0006 |
| NC(=O)c1cccc(-n2c([C@@H](Nc3nc(N)nc(N)c3Cl)C3CC3)nc3cccc(Cl)c3c2=O)c1 [Compound 10, (S)-3-(5-chloro-2-(cyclopropyl((2,6-diamino-5-chloropyrimidin-4-yl)amino)methyl)-4-oxoquinazolin-3(4H)-yl)benzamide] | 2.7 | 0.007 | 0.001 |
| N#Cc1c(N)nc(N)nc1N[C@H](c1nc2c(Cl)ccc(Cl)c2c(=O)n1-c1cccc(C(N)=O)c1)C1CC1 [Compound 12, (S)-3-(5,8-dichloro-2-(cyclopropyl((2,6-diamnino-5-cyanopyrimidin-4-yl)amino)methyl)-4-oxoquinazolin-3(4H)-yl)benzamide] | 0.23 | 0.006 | 0.0003 |
| Cc1nc(N)nc(N[C@H](c2nc3c(F)ccc(Cl)c3c(=O)n2-c2cccc(C(N)=O)c2)C2CC2)c1C#N [Compound 14, (S)-3-(2-(((2-amino-5-cyano-6-methylpyrimidin-4-yl)amino)(cyclopropyl)methyl)-5-chloro-8-fluoro-4-oxoquinazolin-3(4H)-yl)benzamide] | 0.36 | 0.01 | 0.001 |
| N#Cc1c(N)nc(N)nc1N[C@H](c1nc2c(F)ccc(Cl)c2c(=O)n1-c1cccc(C(N)=O)c1)C1CC1 [Compound 15, (S)-3-(5-chloro-2-(cyclopropyl((2,6-diamino-5-cyanopyrimidin-4-yl)amino)methyl)-8-fluoro-4-oxoquinazolin-3(4H)-yl)benzamide] | 0.33 | 0.01 | 0.001 |
| NC(=O)c1cccc(-n2c([C@@H](Nc3nc(N)nc(N)c3Cl)C3CC3)nc3c(F)ccc(Cl)c3c2=O)c1 [Compound 16, (S)-3-(5-chloro-2-(cyclopropyl((2,6-diamino-5-chloropyrimidin-4-yl)amino)methyl)-8-fluoro-4-oxoquinazolin-3(4H)-yl)benzamide] | 3.2 | 0.017 | 0.002 |
| CCC[C@H](Nc1nc(N)nc(N)c1C#N)c1nc2cccc(Cl)c2c(=O)n1-c1cccc(C(N)=O)c1 [Compound 22, (S)-3-(5-chloro-2-(1-((2,6-diamino-5-cyanopyrimidin-4-yl)amino)butyl)-4-oxoquinazolin-3(4H)-yl)benzamide] | 0.3 | 0.007 | 0.0007 |
| C[C@H](Nc1nc(N)nc(C(F)F)c1C#N)c1nc2c(F)ccc(Cl)c2c(=O)n1-c1cccc(C(N)=O)c1 [Compound 24, (S)-3-(2-(1-((2-amino-5-cyano-6-(difluoromethyl)pyrimidin-4-yl)amino)ethyl)-5-chloro-8-fluoro-4-oxoquinazolin-3(4H)-yl)benzamide] | 0.66 | 0.025 | 0.001 |
| C[C@H](Nc1nc(N)nc(C(F)F)c1C#N)c1nc2cccc(Cl)c2c(=O)n1-c1cccc(C(N)=O)c1 [Compound 25, (S)-3-(2-(1-((2-amino-5-cyano-6-(difluoromethyl)pyrimidin-4-yl)amino)ethyl)-5-chloro-4-oxoquinazolin-3(4H)-yl)benzamide] | 0.7 | 0.024 | 0.001 |

Now from value to compound:

| IC50 (PI3Kγ) [µM] | IC50 (PI3Kβ) [µM] | IC50 (PI3Kδ) [µM] | SMILES |
| --- | --- | --- | --- |
| 0.46 | 0.012 | 0.0008 | C[C@H](Nc1nc(N)nc(N)c1C#N)c1nc2c(Cl)ccc(Cl)c2c(=O)n1-c1cccc(C(N)=O)c1 [Compound 3, (S)-3-(5,8-dichloro-2-(1-((2,6-diamino-5-cyanopyrimidin-4-yl)amino)ethyl)-4-oxoquinazolin-3(4H)-yl)benzamide] |
| 4.4 | 0.029 | 0.001 | C[C@H](Nc1nc(N)nc(N)c1Cl)c1nc2c(Cl)ccc(Cl)c2c(=O)n1-c1cccc(C(N)=O)c1 [Compound 4, (S)-3-(5,8-dichloro-2-(1-((2,6-diamino-5-chloropyrimidin-4-yl)amino)ethyl)-4-oxoquinazolin-3(4H)-yl)benzamide] |
| 2.7 | 0.007 | 0.001 | CC[C@H](Nc1nc(N)nc(N)c1Cl)c1nc2cccc(Cl)c2c(=O)n1-c1cccc(C(N)=O)c1 [Compound 7, (S)-3-(5-chloro-2-(1-((2,6-diamino-5-chloropyrimidin-4-yl)amino)propyl)-4-oxoquinazolin-3(4H)-yl)benzamide] |
| 8.5 | 0.037 | 0.003 | NC(=O)c1cccc(-n2c([C@@H](Nc3nc(N)nc(N)c3Cl)C3CC3)nc3c(Cl)ccc(Cl)c3c2=O)c1 [Compound 11, (S)-3-(5,8-dichloro-2-(cyclopropyl((2,6-diamino-5-chloropyrimidin-4-yl)amino)methyl)-4-oxoquinazolin-3(4H)-yl)benzamide] |
| 1.2 | 0.008 | 0.0005 | CC[C@H](Nc1nc(N)nc(N)c1C#N)c1nc2c(Cl)ccc(Cl)c2c(=O)n1-c1cccc(C(N)=O)c1 [Compound 18, (S)-3-(5,8-dichloro-2-(1-((2,6-diamino-5-cyanopyrimidin-4-yl)amino)propyl)-4-oxoquinazolin-3(4H)-yl)benzamide] |
| > 10 | 0.028 | 0.003 | CC[C@H](Nc1nc(N)nc(N)c1Cl)c1nc2c(Cl)ccc(Cl)c2c(=O)n1-c1cccc(C(N)=O)c1 [Compound 19, (S)-3-(5,8-dichloro-2-(1-((2,6-diamino-5-chloropyrimidin-4-yl)amino)propyl)-4-oxoquinazolin-3(4H)-yl)benzamide] |
| > 10 | 0.196 | 0.019 | CCC[C@H](Nc1nc(N)nc(N)c1Cl)c1nc2c(Cl)ccc(Cl)c2c(=O)n1-c1cccc(C(N)=O)c1 [Compound 21, (S)-3-(5,8-dichloro-2-(1-((2,6-diamino-5-chloropyrimidin-4-yl)amino)butyl)-4-oxoquinazolin-3(4H)-yl)benzamide] |
| 3.9 | 0.012 | 0.002 | CCC[C@H](Nc1nc(N)nc(N)c1Cl)c1nc2cccc(Cl)c2c(=O)n1-c1cccc(C(N)=O)c1 [Compound 23, (S)-3-(5-chloro-2-(1-((2,6-diamino-5-chloropyrimidin-4-yl)amino)butyl)-4-oxoquinazolin-3(4H)-yl)benzamide] |
